Target: unphosphorylated-BTK kinase domain (UP-BTK), GST-tagged human BTK (389-659aa) (Homo sapiens (Human), UniProt Q06187)
Assay: BTK kinase Lanthascreen binding assay
Conditions: Lanthascreen tracer competition, 60 minutes incubation, pIC50 = negative log of the IC50 in molar
Summary of the method: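 Tracer-displacement binding assay against the non-phosphorylated enzyme, read by Lanthascreen. Reported: pIC50.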

unphosphorylated-BTK kinase domain (UP-BTK), GST-tagged human BTK (389-659aa), sequence (Q06187 389-659): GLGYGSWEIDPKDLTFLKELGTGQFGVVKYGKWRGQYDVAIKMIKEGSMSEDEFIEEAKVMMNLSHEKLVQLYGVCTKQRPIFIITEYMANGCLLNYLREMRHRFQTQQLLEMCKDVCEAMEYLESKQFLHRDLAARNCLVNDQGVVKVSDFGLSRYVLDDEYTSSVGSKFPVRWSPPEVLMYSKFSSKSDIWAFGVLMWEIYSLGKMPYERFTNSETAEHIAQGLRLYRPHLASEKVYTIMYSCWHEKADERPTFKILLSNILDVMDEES

Row | BTK_I_binding pIC50 | SMILES | IC50 (read-out: BTK_I_binding pIC50 (converted)) [nM]
1 | 6.6 | O=C(N[C@@H]1CNCC[C@H]1O)c1sc2nccc3c2c1NC(=O)N3c1ccc(Oc2ccccc2)cc1 [Example 658, N-((3R,4R)-4-Hydroxypiperidin-3-yl)-4-oxo-5-(4-phenoxyphenyl)-4,5-dihydro-3H-1-thia-3,5,8-triazaacenaphthylene-2-carboxamide] | –
2 | 7.8 | C=CC(=O)N1CCC[C@@H](NC(=O)c2sc3nccc4c3c2NC(=O)N4c2ncc(Oc3ccccc3)cn2)C1 [Example 665, (R)—N-(1-Acryloylpiperidin-3-yl)-4-oxo-5-(5-phenoxypyrimidin-2-yl)-4,5-dihydro-3H-1-thia-3,5,8-triazaacenaphthylene-2-carboxamide] | –
3 | 7.9 | C=CC(=O)N1CCC[C@@H](NC(=O)c2sc3nccc4c3c2NC(=O)N4c2cnc(Oc3ccccc3)cc2C)C1 [Example 667, (R)—N-(1-Acryloylpiperidin-3-yl)-5-(4-methyl-6-phenoxypyridin-3-yl)-4-oxo-4,5-dihydro-3H-1-thia-3,5,8-triazaacenaphthylene-2-carboxamide] | –
4 | 8.2 | C=CC(=O)N1CCC[C@@H](NC(=O)c2sc3nccc4c3c2NC(=O)N4c2ccc(Oc3ccccc3)nc2C)C1 [Example 670, (R)—N-(1-Acryloylpiperidin-3-yl)-5-(2-methyl-6-phenoxypyridin-3-yl)-4-oxo-4,5-dihydro-3H-1-thia-3,5,8-triazaacenaphthylene-2-carboxamide] | –
5 | 8.2 | C=CC(=O)N1CC[C@@H](NC(=O)c2sc3nccc4c3c2NC(=O)N4c2cccc(-c3cccc(F)c3F)c2)C1 [Example 673, (R)—N-(1-Acryloylpyrrolidin-3-yl)-5-(2′,3′-difluoro-[1,1′-biphenyl]-3-yl)-4-oxo-4,5-dihydro-3H-1-thia-3,5,8-triazaacenaphthylene-2-carboxamide] | –
6 | 8.2 | C=CC(=O)N1C[C@@H](O)C[C@@H](NC(=O)c2sc3nccc4c3c2NC(=O)N4c2cccc(-c3cccc(F)c3F)c2)C1 [Example 674, N-((3R,5S)-1-Acryloyl-5-hydroxypiperidin-3-yl)-5-(2′,3′-difluoro-[1,1′-biphenyl]-3-yl)-4-oxo-4,5-dihydro-3H-1-thia-3,5,8-triazaacenaphthylene-2-carboxamide] | –
7 | 7.3 | C=CC(=O)N1CCC[C@@H](NC(=O)c2sc3nccc4c3c2NC(=O)N4c2ccnc(C3CCCCC3)c2)C1 [Example 677, (R)—N-(1-Acryloylpiperidin-3-yl)-5-(2-cyclohexylpyridin-4-yl)-4-oxo-4,5-dihydro-3H-1-thia-3,5,8-triazaacenaphthylene-2-carboxamide] | –
8 | 7.3 | C=CC(=O)N1CCC[C@@H](NC(=O)c2sc3nccc4c3c2NC(=O)N4c2cnnc(-c3ccccc3)c2)C1 [Example 678, (R)—N-(1-Acryloylpiperidin-3-yl)-4-oxo-5-(6-phenylpyridazin-4-yl)-4,5-dihydro-3H-1-thia-3,5,8-triazaacenaphthylene-2-carboxamide] | –
9 | 7.8 | C=CC(=O)N1C[C@H](NC(=O)c2sc3nccc4c3c2NC(=O)N4c2cccc(-c3cccc(F)c3F)c2)C[C@H](OC)C1 [Example 679, N-((3R,5S)-1-Acryloyl-5-methoxypiperidin-3-yl)-5-(2′3′-difluoro-[1,1′-biphenyl]-3-yl)-4-oxo-4,5-dihydro-3H-1-thia-3,5,8-triazaacenaphthylene-2-carboxamide] | –
10 | 7.3 | C=CC(=O)N1CC[C@@H](NC(=O)c2sc3nccc4c3c2NC(=O)N4c2ccc(Oc3ccccc3)nc2)C1 [Example 680, (R)—N-(1-Acryloylpyrrolidin-3-yl)-4-oxo-5-(6-phenoxypyridin-3-yl)-4,5-dihydro-3H-1-thia-3,5,8-triazaacenaphthylene-2-carboxamide] | –
11 | 7.7 | CC(=O)N1CCC[C@H]1/C=C(\C#N)C(=O)N1CCC[C@@H](NC(=O)c2sc3nccc4c3c2NC(=O)N4c2ccc(Oc3ccccc3)cc2C)C1 [Example 681, N—((R)-1-((*E)-3-((S)-1-Acetylpyrrolidin-2-yl)-2-cyanoacryloyl)piperidin-3-yl)-5-(2-methyl-4-phenoxyphenyl)-4-oxo-4,5-dihydro-3H-1-thia-3,5,8-triazaacenaphthylene-2-carboxamide] | –
12 | 7.7 | CC(=O)N1CCC[C@@H]1/C=C(\C#N)C(=O)N1CCC[C@@H](NC(=O)c2sc3nccc4c3c2NC(=O)N4c2ccc(Oc3ccccc3)cc2C)C1 [Example 683, N—((R)-1-((E)-3-((R)-1-Acetylpyrrolidin-2-yl)-2-cyanoacryloyl)piperidin-3-.l)-5-(2-methyl-4-phenoxyphenyl)-4-oxo-4,5-dihydro-3H-1-thia-3,5,8-triazaacenaphthylene-2-carboxamide] | –
13 | 8.1 | C=CC(=O)N1CCC[C@@H](NC(=O)c2sc3nccc4c3c2NC(=O)N4c2cc(-c3ccccc3)ncn2)C1 [Example 685, (R)—N-(1-Acryloylpiperidin-3-yl)-4-oxo-5-(6-phenylpyrimidin-4-yl)-4,5-dihydro-3H-1-thia-3,5,8-triazaacenaphthylene-2-carboxamide] | –
14 | 7.6 | C=CC(=O)N1CCC[C@@H](NC(=O)c2sc3nccc4c3c2NC(=O)N4c2ccc(Oc3ccccc3)c(Cl)c2)C1 [Example 686, (R)—N-(1-Acryloylpiperidin-3-yl)-5-(3-chloro-4-phenoxyphenyl)-4-oxo-4,5-dihydro-3H-1-thia-3,5,8-triazaacenaphthylene-2-carboxamide] | –
15 | 7.5 | C=CC(=O)N1CCC[C@@H](NC(=O)c2sc3nccc4c3c2NC(=O)N4c2cc(-c3ccccc3)ccc2C)C1 [Example 688, (R)—N-(1-Acryloylpiperidin-3-yl)-5-(4-methyl-[1,1′-biphenyl]-3-yl)-4-oxo-4,5-dihydro-3H-1-thia-3,5,8-triazaacenaphthylene-2-carboxamide] | –
16 | 7.6 | C=CC(=O)N1CCC[C@@H](NC(=O)c2sc3nccc4c3c2NC(=O)N4c2cccc(CC(C)C)c2)C1 [Example 689, (R)—N-(1-Acryloylpiperidin-3-yl)-5-(3-isobutylphenyl)-4-oxo-4,5-dihydro-3H-1-thia-3,5,8-triazaacenaphthylene-2-carboxamide] | –
17 | 8.0 | C=CC(=O)N1CCC[C@@H](NC(=O)c2sc3nccc4c3c2NC(=O)N4c2ccnc(C3CCCC3)c2)C1 [Example 692, (R)—N-(1-Acryloylpiperidin-3-yl)-5-(2-cyclopentylpyridin-4-yl)-4-oxo-4,5-dihydro-3H-1-thia-3,5,8-triazaacenaphthylene-2-carboxamide] | –
18 | 7.9 | C=CC(=O)N1CCC[C@@H](NC(=O)c2sc3nccc4c3c2NC(=O)N4c2ccc(OC3CCCC3)cc2C)C1 [Example 693, (R)—N-(1-Acryloylpiperidin-3-yl)-5-(4-(cyclopentyloxy)-2-methylphenyl)-4-oxo-4,5-dihydro-3H-1-thia-3,5,8-triazaacenaphthylene-2-carboxamide] | –
19 | 7.1 | C=CC(=O)N1CCC[C@@H](NC(=O)c2sc3nccc4c3c2NC(=O)N4c2ccc(OC)cc2C)C1 [Example 694, (R)—N-(1-Acryloylpiperidin-3-yl)-5-(4-methoxy-2-methylphenyl)-4-oxo-4,5-dihydro-3H-1-thia-3,5,8-triazaacenaphthylene-2-carboxamide] | –
20 | 7.3 | C=CC(=O)N1CCC[C@@H](NC(=O)c2sc3nccc4c3c2NC(=O)N4c2cc(-c3ccccc3)ncc2C)C1 [Example 695, (R)—N-(1-Acryloylpiperidin-3-yl)-5-(5-methyl-2-phenylpyridin-4-yl)-4-oxo-4,5-dihydro-3H-1-thia-3,5,8-triazaacenaphthylene-2-carboxamide] | –
21 | 6.9 | C=CC(=O)N1CCC[C@@H](NC(=O)c2sc3nccc4c3c2NC(=O)N4c2ccc(OCCOC(C)C)cc2C)C1 [Example 696, (R)—N-(1-Acryloylpiperidin-3-yl)-5-(4-(2-isopropoxyethoxy)-2-methylphenyl)-4-oxo-4,5-dihydro-3H-1-thia-3,5,8-triazaacenaphthylene-2-carboxamide] | –
22 | 6.9 | C=CC(=O)N1CCC[C@@H](NC(=O)c2sc3nccc4c3c2NC(=O)N4c2ccnc(C(C)C)c2)C1 [Example 697, (R)—N-(1-Acryloylpiperidin-3-yl)-5-(2-isopropylpyridin-4-yl)-4-oxo-4,5-dihydro-3H-1-thia-3,5,8-triazaacenaphthylene-2-carboxamide] | –
23 | – | C=CC(=O)N1CC[C@@H](NC(=O)c2sc3nccc4c3c2NC(=O)N4c2ccc(Oc3ccccc3)cn2)C1 [Example 698, (R)—N-(1-Acryloylpyrrolidin-3-yl)-4-oxo-5-(5-phenoxypyridin-2-yl)-4,5-dihydro-3H-1-thia-3,5,8-triazaacenaphthylene-2-carboxamide] | 31.6
24 | 7.2 | C=CC(=O)N1CC[C@@H](NC(=O)c2sc3nccc4c3c2NC(=O)N4c2cnc(Oc3ccccc3)cn2)C1 [Example 699, (R)—N-(1-Acryloylpyrrolidin-3-yl)-4-oxo-5-(5-phenoxypyrazin-2-yl)-4,5-dihydro-3H-1-thia-3,5,8-triazaacenaphthylene-2-carboxamide] | –

Row | SMILES | BTK_I_binding pIC50 | IC50 (read-out: BTK_I_binding pIC50 (converted)) [nM]
25 | C=CC(=O)N1CCC[C@@H](NC(=O)c2sc3nccc4c3c2NC(=O)N4c2cnc(OC3CCC3)cc2C)C1 [Example 672, (R)—N-(1-Acryloylpiperidin-3-yl)-5-(6-cyclobutoxy-4-methylpyridin-3-yl)-4-oxo-4,5-dihydro-3H-1-thia-3,5,8-triazaacenaphthylene-2-carboxamide] | 7.6 | –
26 | C=CC(=O)N1CCC[C@@H](NC(=O)c2sc3nccc4c3c2NC(=O)N4c2ccc(OC3CCC3)nc2)C1 [Example 687, (R)—N-(1-Acryloylpiperidin-3-yl)-5-(6-cyclobutoxypyridin-3-yl)-4-oxo-4,5-dihydro-3H-1-thia-3,5,8-triazaacenaphthylene-2-carboxamide] | 7.5 | –

Reference: patent US10800792B2, “Inhibitors of Bruton's tyrosine kinase and method of their use” (JANSSEN PHARMACEUTICA NV, priority 2015, dated 2020)
